The test system of this assay is fibrous adhesions between the caecum and the sidewall. Put plainly: Rat caecal-sidewall surgical adhesion model, drug loaded hyaluronic acid film (Example 1). In kind it is in vivo. Particulars: for inhibition of all adhesions (zero on the Total Adhesion Value scale) in at least one test animal: agent administered to the cecal-sidewall site.

Structures can show the parent of a compound that is named as a salt.

Excerpt: In one embodiment, the efficacy of the given drug or drug combination can be assessed as a reduction of the average Total Adhesion Value (strength×area; “TAV”) of the drug or combination versus a given standard, for example a drug-loaded sodium hyaluronate film versus a sham or a sodium hyaluronate film alone in the rat cecal-sidewall model for surgical fibrous adhesions.
The rat caecal sidewall model of surgical adhesions was used to investigate the effect of administration of each agent discussed herein (hereafter referred to as the drug) for the prevention of post-surgical type of fibrous adhesions. In this model, rats were divided into groups of 4. After surgical trauma, the rats were either untreated, treated with crosslinked hyaluronic acid (HA) film, or crosslinked HA film containing drug at the following concentrations in the film (% w/w):
Animal Studies. […] Only animals that appeared grossly normal (i.e., showing a clean unruffled coat, bright clear eyes and an active posture) were used in the study. Animals were randomly assigned to treatment groups, weighed and anesthetized with isoflurane gas. The abdomen was shaved and cleaned with a skin-antibacterial cleanser (Steri-Stat 2%) and wiped with a chlorohexane soaked gauze. A nick was made in one of the tail veins to elicit a small amount of blood (<100 mL). A white blood cell count was performed on this blood sample. An antibiotic (40,000 IU/kg of depopenicillin) was injected into the right thigh and an analgesic (0.01 mg/kg of buprenorphine) was injected into the left thigh of each rat. A 4 cm incision was made in the skin beginning approximately 2 cm caudal to the linea alba while the muscle was tended with forceps. […] Scraping was in the opposite direction to which the blade was pointing. The scraped caecum was wrapped in saline-soaked gauze. Doynes were used to separate the peritoneal wall from the skin, and the peritoneal wall was inverted using the doynes to expose the inside of the wall. A rectangular injury roughly 1.2 cm by 1.8 cm was made by shallow incisions to the peritoneal wall. The top membrane and a layer of muscle tissue was removed using forceps. The caecum was stitched to the four corners of the rectangle using a 5-0 suture, and without tying off the top two stitches. A piece of film was placed onto the abraded rectangle and then the top two stitches were tied firmly. In the case of the untreated control group, no film was placed over the abraded site. The exposed organs were replaced in the abdomen in such a way as to prevent torsional stress on the intestines. […] A collar was placed around the neck of the animal to prevent it from interfering with the stitches. The rat was placed in a clean cage and warmed with a heating lamp until consciousness was regained.

For the compound `N.N.[Cl][Pt][Cl]` [cisplatin, Cisplatin], the “inhibition of all adhesions (zero on the Total Adhesion Value scale) in at least one test animal” value (“inhibition of all adhesions” below) is listed as “completely inhibited fibrous adhesions”. Besides, the “reduction in adhesion score versus control, one-tailed Student's t-test (p<0.05)” value (2% w/w in HA film) is on record as “statistically significant”. Consider `CC(=O)O[C@@]12CO[C@@H]1C[C@H](O)[C@@]1(C)C(=O)[C@H](O)C3=C(C)[C@@H](OC(=O)[C@H](O)[C@@H](NC(=O)OC(C)(C)C)c4ccccc4)C[C@@](O)([C@@H](OC(=O)c4ccccc4)[C@H]21)C3(C)C` [docetaxel, Docetaxel], for which the “inhibition of all adhesions” value is “completely inhibited fibrous adhesions”.

In the case of `CCOC(=O)[C@H](CCc1ccccc1)N[C@@H](C)C(=O)N1CCC[C@H]1C(=O)O` [enalapril maleate, Enalapril Maleate], for the setting “5% w/w in HA film”, the “reduction in adhesion score versus control, one-tailed Student's t-test (p<0.05)” value was “statistically significant”. The same measure, in the same setting: with `CC[C@H]1OC(=O)[C@H](C)[C@@H](O[C@H]2C[C@@](C)(OC)[C@@H](O)[C@H](C)O2)[C@H](C)[C@@H](O[C@@H]2O[C@H](C)C[C@H](N(C)C)[C@H]2O)[C@](C)(O)C[C@@H](C)C(=O)[C@H](C)[C@@H](O)[C@]1(C)O` [erythromycin, Erythromycin] the entry was “statistically significant”.

`CN(Cc1cnc2nc(N)nc(N)c2n1)c1ccc(C(=O)N[C@@H](CCC(=O)O)C(=O)O)cc1` [methotrexate, Methotrexate]: the “inhibition of all adhesions” value is reported as “completely inhibited fibrous adhesions”.

The record behind these values is US20170252367A1, “PHARMACEUTICAL COMPOSITIONS AND METHODS RELATING TO INHIBITING FIBROUS ADHESIONS OR INFLAMMATORY DISEASE USING LOW SULPHATE FUCANS” (ARC Medical Devices, Inc., priority 2004, published 2017).
